Experimental data: patent publication US20120009222A1, “MODULATION OF THE IMMUNE RESPONSE” (priority 2008, published 2012)

Tests used:
[1] = tested on: influenza virus; experiment: Inhibition of influenza viral replication in mouse lung (plaque forming assay); parameters: species or system mice; settings: in vivo, iv, 2 mg/kg
[2] = tested on: serum IFN-alpha; experiment: Systemic Type 1 interferon response: serum IFN-alpha by ELISA; settings: siRNA in lyophilized ND(5)-98-1 nanoparticles, 2 mg/kg IV twice
Description: Mice were injected IV twice with lyophilized ND(5)-98-1 (ND98)-siRNA nanoparticles at 2 mg/kg siRNA prior to (a) infection with 12,000 PFU, or (b) blood collection by cardiac puncture. […] (b) Serum IFN-alpha concentration was determined by ELISA.

[3] = target: T1, TLR8 (Homo sapiens, UniProt Q9NR97); settings: cited from earlier work
T1 construct: a strong ligand for both TLR7 and TLR8 in vitro in human PBMCs tranfected with DOTAP; host or cells: human PBMCs (endogenous receptor)
T1 sequence (Q9NR97 27-1041): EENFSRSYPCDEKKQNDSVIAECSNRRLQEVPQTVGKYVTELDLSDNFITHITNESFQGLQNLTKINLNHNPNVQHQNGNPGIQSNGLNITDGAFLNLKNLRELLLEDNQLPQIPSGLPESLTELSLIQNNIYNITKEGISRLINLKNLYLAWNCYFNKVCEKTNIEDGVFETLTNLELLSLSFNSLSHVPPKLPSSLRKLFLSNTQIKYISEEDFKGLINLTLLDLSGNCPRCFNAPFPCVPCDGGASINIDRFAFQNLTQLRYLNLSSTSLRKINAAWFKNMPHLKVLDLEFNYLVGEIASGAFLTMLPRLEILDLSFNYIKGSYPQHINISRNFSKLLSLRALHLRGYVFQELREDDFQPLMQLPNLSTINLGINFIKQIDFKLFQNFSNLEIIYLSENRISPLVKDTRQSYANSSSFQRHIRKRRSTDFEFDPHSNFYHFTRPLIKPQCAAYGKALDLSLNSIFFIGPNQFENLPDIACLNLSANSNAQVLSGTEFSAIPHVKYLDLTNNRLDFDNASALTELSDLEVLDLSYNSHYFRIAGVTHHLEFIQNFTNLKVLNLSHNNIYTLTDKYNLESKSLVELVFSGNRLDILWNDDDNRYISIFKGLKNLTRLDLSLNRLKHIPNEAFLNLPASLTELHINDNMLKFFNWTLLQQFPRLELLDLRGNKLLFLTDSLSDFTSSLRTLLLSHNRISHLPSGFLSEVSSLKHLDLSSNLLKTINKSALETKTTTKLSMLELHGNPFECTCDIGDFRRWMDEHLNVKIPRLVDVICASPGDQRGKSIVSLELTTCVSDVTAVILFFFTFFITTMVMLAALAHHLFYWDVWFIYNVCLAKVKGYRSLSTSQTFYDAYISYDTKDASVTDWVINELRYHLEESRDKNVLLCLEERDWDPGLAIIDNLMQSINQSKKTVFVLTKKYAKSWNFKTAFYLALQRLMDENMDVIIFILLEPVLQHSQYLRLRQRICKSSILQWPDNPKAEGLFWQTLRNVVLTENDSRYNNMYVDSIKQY

[4] = target: T2, TLR7 (Homo sapiens, UniProt Q9NYK1); settings: cited from earlier work
T2 construct: host or cells: human PBMCs (endogenous receptor)
T2 sequence (Q9NYK1 27-1049): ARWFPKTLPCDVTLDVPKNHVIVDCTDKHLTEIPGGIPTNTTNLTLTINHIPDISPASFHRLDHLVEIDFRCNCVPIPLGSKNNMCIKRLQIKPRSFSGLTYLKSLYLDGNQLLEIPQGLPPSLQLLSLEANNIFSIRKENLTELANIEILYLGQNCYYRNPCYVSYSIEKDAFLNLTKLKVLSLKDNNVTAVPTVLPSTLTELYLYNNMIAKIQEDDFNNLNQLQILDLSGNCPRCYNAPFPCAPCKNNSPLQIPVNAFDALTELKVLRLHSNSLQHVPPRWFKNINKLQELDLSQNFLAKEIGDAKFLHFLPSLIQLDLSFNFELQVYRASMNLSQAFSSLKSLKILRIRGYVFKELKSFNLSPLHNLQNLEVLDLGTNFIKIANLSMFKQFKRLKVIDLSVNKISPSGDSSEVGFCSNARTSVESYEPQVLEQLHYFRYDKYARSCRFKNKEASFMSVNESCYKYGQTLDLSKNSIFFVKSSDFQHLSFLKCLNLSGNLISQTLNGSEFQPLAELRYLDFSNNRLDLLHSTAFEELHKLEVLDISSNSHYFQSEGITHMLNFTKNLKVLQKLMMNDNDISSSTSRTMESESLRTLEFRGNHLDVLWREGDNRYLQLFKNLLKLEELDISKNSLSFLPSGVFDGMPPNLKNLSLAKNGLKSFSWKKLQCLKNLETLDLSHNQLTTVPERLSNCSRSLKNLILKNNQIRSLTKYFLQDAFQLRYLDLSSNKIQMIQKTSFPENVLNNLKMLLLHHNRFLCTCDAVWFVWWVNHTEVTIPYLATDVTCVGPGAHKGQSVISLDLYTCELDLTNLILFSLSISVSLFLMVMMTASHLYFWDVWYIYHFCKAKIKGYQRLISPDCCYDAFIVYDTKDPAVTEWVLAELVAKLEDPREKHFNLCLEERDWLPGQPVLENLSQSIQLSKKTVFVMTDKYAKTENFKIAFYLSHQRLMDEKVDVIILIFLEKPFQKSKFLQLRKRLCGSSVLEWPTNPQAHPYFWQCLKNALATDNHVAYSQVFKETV

5′-CUACACAAAUCAGCGAUUUUU-3′ [siBgal-728]
viral titer versus nanoparticles formulated with siGFP-949 [1]: significant reductions
serum IFN-alpha [2]: high levels

5′-GCCACCGAGCCGAAGGCACC-3′ (all phosphorothioate, sugars by position and methylation of C not given here; lipidoid formulation) [R1263]
TLR8 agonist activity [3]: low
TLR7 agonist activity [4]: low

5′-GGAUCUUAUUUCUUCGGAGUU-3′ [siNP-1496]
viral titer versus nanoparticles formulated with siGFP-949 [1]: significant reductions
serum IFN-alpha [2]: high levels

5′-UUGUUGUUGUUGUUGUUGUU-3′ (all phosphorothioate, sugars by position not given here; lipidoid formulation) [R1362]
TLR8 agonist activity [3]: highly active
TLR7 agonist activity [4]: highly active
